# Laboratory results taken from ChEMBL document CHEMBL1201862, “PubChem BioAssay data set” (2004).
#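 Test compounds were applied to cells in 96-well plates for 48 hours at 5 doses. GI50 is the concentration that inhibits growth by half.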 Calls of active or inactive are those of the source. Cut-off read from the data, not from the text of the source: active = GI50 up to about 1.1 µM and inactive = higher.
# Columns and labels:
# Assay in all cases: NCI tumour cell line growth inhibition, 48 h
# SF-295 = system: SF-295
# ACHN = system: ACHN
# DMS-114 = system: DMS-114
# A549 = system: A549
# NCI-H460 = system: NCI-H460
# IGROV-1 = system: IGROV-1
# NCI-H226 = system: NCI-H226
# OVCAR-4 = system: OVCAR-4
# CAKI-1 = system: CAKI-1
# RXF 393 = system: RXF 393
# U-251 = system: U-251
# SF-539 = system: SF-539
# HOP-92 = system: HOP-92
# 786-0 = system: 786-0
# DMS-273 = system: DMS-273
# OVCAR-3 = system: OVCAR-3
# EKVX = system: EKVX
# TK-10 = system: TK-10
# SNB-78 = system: SNB-78
# OVCAR-5 = system: OVCAR-5
# DLD-1 = system: DLD-1
# UO-31 = system: UO-31
# HCT-15 = system: HCT-15
# Malme-3M = system: Malme-3M
# SF-268 = system: SF-268
# OVCAR-8 = system: OVCAR-8
# SK-MEL-5 = system: SK-MEL-5
# SK-MEL-28 = system: SK-MEL-28
# KM-20L2 = system: KM-20L2
# SW-620 = system: SW-620
# SK-MEL-2 = system: SK-MEL-2
# MOLT-4 = system: MOLT-4
# SNB-75 = system: SNB-75
# HOP-62 = system: HOP-62
# LOX IMVI = system: LOX IMVI
# K562 = system: K562
# M19-MEL = system: M19-MEL
# SN12C = system: SN12C
# HCT-116 = system: HCT-116
# SK-OV-3 = system: SK-OV-3
# NCI-H23 = system: NCI-H23
# A498 = system: A498
# HT-29 = system: HT-29
# KM12 = system: KM12
# M14 = system: M14
# CCRF-CEM = system: CCRF-CEM
# UACC-62 = system: UACC-62
# HCC 2998 = system: HCC 2998
# HL-60 = system: HL-60
# RPMI-8226 = system: RPMI-8226
# SNB-19 = system: SNB-19
# UACC-257 = system: UACC-257
# NCI-H522 = system: NCI-H522
# PC-3 = system: PC-3
# DU-145 = system: DU-145
# MDA-MB-435 = system: MDA-MB-435
# MDA-N = system: MDA-N
# SR = system: SR
# NCI/ADR-RES = system: NCI/ADR-RES
# MCF7 = system: MCF7
# COLO 205 = system: COLO 205
# Hs-578T = system: Hs-578T
# T47D = system: T47D
# BT-549 = system: BT-549
# MDA-MB-231 = system: MDA-MB-231
structure (smiles),measurement,setting,value
Cc1ccc(S(=O)(=O)N/N=C\c2c3ccccc3[n+](C)c3ccccc23)cc1,GI50,SF-295,13.8 µM (inactive)
same,GI50,ACHN,41.9 µM (inactive)
same,GI50,DMS-114,24.9 µM (inactive)
same,GI50,A549,20.8 µM (inactive)
same,GI50,NCI-H460,19.8 µM (inactive)
same,GI50,IGROV-1,29.6 µM (inactive)
same,GI50,NCI-H226,25 µM (inactive)
same,GI50,OVCAR-4,27.6 µM (inactive)
same,GI50,CAKI-1,17.7 µM (inactive)
same,GI50,RXF 393,15.9 µM (inactive)
same,GI50,U-251,24 µM (inactive)
same,GI50,SF-539,22.4 µM (inactive)
same,GI50,HOP-92,17.1 µM (inactive)
same,GI50,786-0,28.1 µM (inactive)
same,GI50,DMS-273,22.1 µM (inactive)
same,GI50,OVCAR-3,26.1 µM (inactive)
same,GI50,EKVX,54.6 µM (inactive)
same,GI50,TK-10,48.3 µM (inactive)
same,GI50,SNB-78,61.7 µM (inactive)
same,GI50,OVCAR-5,> 100 µM (inactive)
same,GI50,DLD-1,38.1 µM (inactive)
same,GI50,UO-31,26.9 µM (inactive)
same,GI50,HCT-15,25.8 µM
same,GI50,Malme-3M,32.4 µM (inactive)
same,GI50,SF-268,29.2 µM (inactive)
same,GI50,OVCAR-8,38.5 µM (inactive)
same,GI50,SK-MEL-5,29.4 µM (inactive)
same,GI50,SK-MEL-28,31.5 µM (inactive)
same,GI50,KM-20L2,31.7 µM (inactive)
same,GI50,SW-620,33.8 µM (inactive)
same,GI50,SK-MEL-2,43.8 µM (inactive)
same,GI50,MOLT-4,17.6 µM (inactive)
same,GI50,SNB-75,20 µM (inactive)
same,GI50,HOP-62,34.1 µM (inactive)
same,GI50,LOX IMVI,11.2 µM (inactive)
same,GI50,K562,15.6 µM (inactive)
same,GI50,M19-MEL,32.1 µM (inactive)
same,GI50,SN12C,48.6 µM (inactive)
same,GI50,HCT-116,30.5 µM (inactive)
same,GI50,SK-OV-3,> 100 µM (inactive)
same,GI50,NCI-H23,21.1 µM (inactive)
same,GI50,A498,20.4 µM (inactive)
same,GI50,HT-29,19.4 µM (inactive)
same,GI50,KM12,34.6 µM (inactive)
same,GI50,M14,26 µM (inactive)
same,GI50,CCRF-CEM,15.3 µM (inactive)
same,GI50,UACC-62,19.8 µM (inactive)
same,GI50,HCC 2998,92.7 µM (inactive)
same,GI50,HL-60,22 µM (inactive)
same,GI50,RPMI-8226,29.8 µM (inactive)
same,GI50,SNB-19,24.9 µM (inactive)
same,GI50,UACC-257,30.8 µM (inactive)
same,GI50,NCI-H522,25.8 µM (inactive)
Cc1ccc(C(=O)N/N=C2/C(=O)c3c4ccccc4cc4cccc2c34)cc1,GI50,SF-295,19.5 µM (inactive)
same,GI50,PC-3,25.3 µM (inactive)
same,GI50,ACHN,7.82 µM (inactive)
same,GI50,DU-145,3.44 µM (inactive)
same,GI50,MDA-MB-435,23.9 µM (inactive)
same,GI50,A549,32.4 µM (inactive)
same,GI50,NCI-H460,15 µM (inactive)
same,GI50,IGROV-1,15.8 µM (inactive)
same,GI50,NCI-H226,> 69.3 µM (inactive)
same,GI50,OVCAR-4,18.2 µM (inactive)
same,GI50,CAKI-1,25.4 µM (inactive)
same,GI50,RXF 393,12.6 µM (inactive)
same,GI50,U-251,21 µM (inactive)
same,GI50,SF-539,15.5 µM (inactive)
same,GI50,MDA-N,37.8 µM (inactive)
same,GI50,HOP-92,46.6 µM (inactive)
same,GI50,786-0,14.2 µM (inactive)
same,GI50,OVCAR-3,22.5 µM (inactive)
same,GI50,SR,1.99 µM (inactive)
same,GI50,EKVX,40.2 µM (inactive)
same,GI50,NCI/ADR-RES,30.1 µM (inactive)
same,GI50,TK-10,25.2 µM (inactive)
same,GI50,MCF7,2.3 µM (inactive)
same,GI50,OVCAR-5,> 70 µM (inactive)
same,GI50,UO-31,17.2 µM (inactive)
same,GI50,HCT-15,20.6 µM
same,GI50,COLO 205,31.3 µM (inactive)
same,GI50,Malme-3M,18.8 µM (inactive)
same,GI50,Hs-578T,19.1 µM (inactive)
same,GI50,SF-268,18.7 µM (inactive)
same,GI50,OVCAR-8,22.4 µM (inactive)
same,GI50,SK-MEL-5,27.5 µM (inactive)
same,GI50,SK-MEL-28,17.7 µM (inactive)
same,GI50,SW-620,8.71 µM (inactive)
same,GI50,SK-MEL-2,64 µM (inactive)
same,GI50,T47D,13.4 µM (inactive)
same,GI50,SNB-75,26.7 µM (inactive)
same,GI50,BT-549,> 100 µM (inactive)
same,GI50,HOP-62,16.2 µM (inactive)
same,GI50,LOX IMVI,12.4 µM (inactive)
same,GI50,K562,> 21.1 µM (inactive)
same,GI50,MDA-MB-231,37 µM (inactive)
same,GI50,SN12C,21.8 µM (inactive)
same,GI50,HCT-116,4.78 µM (inactive)
same,GI50,SK-OV-3,23.7 µM (inactive)
same,GI50,NCI-H23,24.6 µM (inactive)
same,GI50,A498,> 100 µM (inactive)
same,GI50,HT-29,21.6 µM (inactive)
same,GI50,KM12,3.89 µM (inactive)
same,GI50,M14,31.4 µM (inactive)
same,GI50,CCRF-CEM,3.98 µM (inactive)
same,GI50,UACC-62,26.9 µM (inactive)
same,GI50,HCC 2998,38.8 µM (inactive)
same,GI50,HL-60,10.2 µM (inactive)
same,GI50,RPMI-8226,22 µM (inactive)
same,GI50,SNB-19,27.6 µM (inactive)
same,GI50,UACC-257,> 87.9 µM (inactive)
same,GI50,NCI-H522,18 µM (inactive)
